Format in all cases: functional, cell membranes, Membrane vesicle
Common to all, as to design: scale not given: the % may be the effect or the level left

Data set [1] addresses ATP-binding cassette sub-family C member 2 (Homo sapiens, UniProt Q92887). Nature of the data set: TP_TRANSPORTER: inhibition of NEM-GS by Benzbromarone at a concentration of 30uM in membrane vesicles from MRP2-expressing Sf9 cells. The note with it: sf9, 30 µM.
For data set [2], the target named is T1, MRP6 (ABCC6) (Homo sapiens, UniProt O95255). Put plainly: TP_TRANSPORTER: inhibition of NEM-GS in the presence of Benzbromarone at a concentration of 30uM in membrane vesicles from MRP6-expressing Sf9 cells. As to conditions: probe NEM-GS, read-out: Activity.
T1 sequence (O95255 whole entry): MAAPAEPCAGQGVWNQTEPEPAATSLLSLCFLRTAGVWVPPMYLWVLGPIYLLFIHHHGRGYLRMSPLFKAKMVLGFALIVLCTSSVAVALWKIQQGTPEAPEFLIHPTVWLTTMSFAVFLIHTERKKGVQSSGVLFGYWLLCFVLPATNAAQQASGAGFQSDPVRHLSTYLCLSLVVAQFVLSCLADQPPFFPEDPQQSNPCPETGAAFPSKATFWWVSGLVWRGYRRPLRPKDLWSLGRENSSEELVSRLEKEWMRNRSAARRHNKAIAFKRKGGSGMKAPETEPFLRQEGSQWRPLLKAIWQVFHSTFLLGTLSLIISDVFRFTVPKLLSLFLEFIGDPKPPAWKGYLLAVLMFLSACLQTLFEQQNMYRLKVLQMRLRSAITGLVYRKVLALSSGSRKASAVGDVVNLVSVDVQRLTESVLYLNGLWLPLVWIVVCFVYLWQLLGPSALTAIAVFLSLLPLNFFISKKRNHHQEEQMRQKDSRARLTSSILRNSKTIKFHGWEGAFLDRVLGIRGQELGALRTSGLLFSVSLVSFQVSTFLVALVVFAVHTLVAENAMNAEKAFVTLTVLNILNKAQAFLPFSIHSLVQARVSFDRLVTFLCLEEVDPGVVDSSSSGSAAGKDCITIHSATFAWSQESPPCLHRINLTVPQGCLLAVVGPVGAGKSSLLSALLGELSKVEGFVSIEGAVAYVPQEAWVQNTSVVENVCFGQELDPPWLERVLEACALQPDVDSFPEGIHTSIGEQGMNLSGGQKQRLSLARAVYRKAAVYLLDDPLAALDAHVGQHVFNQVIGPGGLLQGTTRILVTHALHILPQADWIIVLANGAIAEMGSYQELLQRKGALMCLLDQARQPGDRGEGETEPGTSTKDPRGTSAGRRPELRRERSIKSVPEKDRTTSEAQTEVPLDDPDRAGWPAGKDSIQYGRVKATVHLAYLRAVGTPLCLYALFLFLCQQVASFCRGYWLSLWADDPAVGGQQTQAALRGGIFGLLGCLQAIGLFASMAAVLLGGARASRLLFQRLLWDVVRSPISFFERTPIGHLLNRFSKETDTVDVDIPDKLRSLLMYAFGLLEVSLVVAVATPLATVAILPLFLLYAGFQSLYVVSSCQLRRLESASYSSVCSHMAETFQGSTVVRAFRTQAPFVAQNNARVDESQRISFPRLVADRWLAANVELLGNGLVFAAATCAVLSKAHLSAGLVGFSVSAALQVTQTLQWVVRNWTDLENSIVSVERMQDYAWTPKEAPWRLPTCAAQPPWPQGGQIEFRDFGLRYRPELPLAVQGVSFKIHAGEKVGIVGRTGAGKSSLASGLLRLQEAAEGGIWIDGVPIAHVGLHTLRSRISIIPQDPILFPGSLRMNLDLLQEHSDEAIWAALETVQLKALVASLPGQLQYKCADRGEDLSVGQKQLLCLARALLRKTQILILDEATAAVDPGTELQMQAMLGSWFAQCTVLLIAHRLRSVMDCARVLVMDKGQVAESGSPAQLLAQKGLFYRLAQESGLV
Data set [3] deals with T1, MRP6 (ABCC6). Put plainly: TP_TRANSPORTER: inhibition of NEM-GS by Benzbromarone at a concentration of 30uM in membrane vesicles from MRP6-expressing Sf9 cells. As to conditions: probe NEM-GS, read-out: Activity.
For data set [4], the target named is T1, MRP6 (ABCC6). Nature of the data set: TP_TRANSPORTER: inhibition of NEM-GS in the presence of Indomethacin at a concentration of 100uM in membrane vesicles from MRP6-expressing Sf9 cells. As to conditions: probe NEM-GS, read-out: Activity.
Data set [5] has as its target T1, MRP6 (ABCC6). Nature of the data set: TP_TRANSPORTER: inhibition of NEM-GS by Indomethacin at a concentration of 100uM in membrane vesicles from MRP6-expressing Sf9 cells. As to conditions: probe NEM-GS, read-out: Activity.
Data set [6] has as its target T1, MRP6 (ABCC6). Nature of the data set: TP_TRANSPORTER: inhibition of NEM-GS in the presence of Probenecid at a concentration of 1mM in membrane vesicles from MRP6-expressing Sf9 cells. As to conditions: probe NEM-GS, read-out: Activity.
For data set [7], the target named is ATP-binding cassette sub-family C member 6 (Homo sapiens, UniProt O95255). Put plainly: TP_TRANSPORTER: inhibition of NEM-GS by Probenecid at a concentration of 1mM in membrane vesicles from MRP6-expressing Sf9 cells. As to conditions: sf9, 1000 µM.
ATP-binding cassette sub-family C member 6, sequence (O95255 whole entry): as above
The target of a further data set is MRP2 (ABCC2) (Homo sapiens, UniProt Q92887). Put plainly: TP_TRANSPORTER: inhibition of NEM-GS by Probenecid at a concentration of 1mM in membrane vesicles from MRP2-expressing Sf9 cells. The note with it: probe NEM-GS, read-out: Activity.
MRP2 (ABCC2), sequence (Q92887 whole entry): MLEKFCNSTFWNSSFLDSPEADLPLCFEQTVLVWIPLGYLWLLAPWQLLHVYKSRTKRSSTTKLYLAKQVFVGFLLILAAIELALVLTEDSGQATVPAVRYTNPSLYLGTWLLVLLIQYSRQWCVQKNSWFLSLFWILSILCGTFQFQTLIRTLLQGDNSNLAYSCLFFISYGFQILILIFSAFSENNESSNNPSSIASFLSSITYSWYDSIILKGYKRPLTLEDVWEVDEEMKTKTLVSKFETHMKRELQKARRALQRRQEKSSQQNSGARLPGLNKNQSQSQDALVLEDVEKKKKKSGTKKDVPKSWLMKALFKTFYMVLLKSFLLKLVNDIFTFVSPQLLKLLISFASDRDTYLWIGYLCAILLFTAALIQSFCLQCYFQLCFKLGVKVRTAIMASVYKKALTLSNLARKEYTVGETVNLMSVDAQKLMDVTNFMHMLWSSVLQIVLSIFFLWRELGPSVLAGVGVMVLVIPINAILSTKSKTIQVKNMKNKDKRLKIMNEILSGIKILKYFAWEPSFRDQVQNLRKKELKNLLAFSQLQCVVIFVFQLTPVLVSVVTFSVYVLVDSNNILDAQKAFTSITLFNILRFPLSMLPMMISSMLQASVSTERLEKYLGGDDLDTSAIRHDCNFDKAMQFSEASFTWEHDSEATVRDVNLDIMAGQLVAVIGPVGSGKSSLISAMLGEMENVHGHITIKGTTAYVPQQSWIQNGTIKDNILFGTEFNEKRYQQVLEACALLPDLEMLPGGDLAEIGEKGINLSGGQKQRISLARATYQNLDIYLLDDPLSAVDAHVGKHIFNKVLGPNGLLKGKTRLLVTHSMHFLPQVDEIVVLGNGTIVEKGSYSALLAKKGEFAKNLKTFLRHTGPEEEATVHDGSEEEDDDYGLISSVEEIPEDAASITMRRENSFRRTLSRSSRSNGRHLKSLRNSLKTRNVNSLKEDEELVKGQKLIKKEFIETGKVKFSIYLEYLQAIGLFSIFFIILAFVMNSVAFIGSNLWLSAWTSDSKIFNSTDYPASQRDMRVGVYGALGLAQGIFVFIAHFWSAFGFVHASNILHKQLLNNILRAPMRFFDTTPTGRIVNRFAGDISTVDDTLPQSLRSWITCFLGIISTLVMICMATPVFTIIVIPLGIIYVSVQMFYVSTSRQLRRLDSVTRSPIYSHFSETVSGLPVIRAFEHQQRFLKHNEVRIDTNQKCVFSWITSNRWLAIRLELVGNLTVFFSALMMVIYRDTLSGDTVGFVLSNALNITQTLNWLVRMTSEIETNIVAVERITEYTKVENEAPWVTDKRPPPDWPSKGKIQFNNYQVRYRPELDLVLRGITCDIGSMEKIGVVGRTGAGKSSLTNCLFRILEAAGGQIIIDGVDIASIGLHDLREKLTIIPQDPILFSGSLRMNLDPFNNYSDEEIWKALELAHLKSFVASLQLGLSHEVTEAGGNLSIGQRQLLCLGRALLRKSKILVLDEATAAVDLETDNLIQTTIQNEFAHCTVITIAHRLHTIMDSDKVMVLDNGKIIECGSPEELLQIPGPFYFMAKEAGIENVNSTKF

Consider three molecules from ChEMBL document CHEMBL2074244, “Loss of ATP-dependent transport activity in pseudoxanthoma elasticum-associated mutants of human ABCC6 (MRP6)” (J Biol Chem, 2002).

ATP-binding cassette sub-family C member 2, sequence (Q92887 whole entry): as above

Consider `CCc1oc2ccccc2c1C(=O)c1cc(Br)c(O)c(Br)c1` [BENZBROMARONE], for which the Activity in data set [1] is 0%. Besides, the activity at 30 µM at MRP6 (ABCC6) [2] and on MRP6 (ABCC6) [3] was 0% throughout.

With `COc1ccc2c(c1)c(CC(=O)O)c(C)n2C(=O)c1ccc(Cl)cc1` [INDOMETHACIN], the activity at 100 µM at MRP6 (ABCC6) [4] came out at 80%; on MRP6 (ABCC6) [5] it was 20%.

For `CCCN(CCC)S(=O)(=O)c1ccc(C(=O)O)cc1` [PROBENECID], the figures for the activity at 1000 µM at MRP6 (ABCC6) [6] and on MRP2 (ABCC2) were 10% and 20%, respectively. The Activity in data set [7] is 70%.
